Reference: patent publication US12702643B2, “Ion-exchange composition with water-soluble mucoadhesive polymers” (Fertin Pharma A/S, priority 2019, dated 2026)

Settings: increase of nicotine concentration from 100 microgram/mL to 14,000 microgram/mL

SMILES: CN1CCCC1c1cccnc1 (stereo not shown) [nicotine]
- Permeability of nicotine across the buccal mucosa: decrease of about a factor of two
